# Data from patent US7462614B2, “Imidazotriazine compounds” (Smithkline Beecham Corporation, priority 2003, dated 2008).
# Assays:
# [1] = tested on: breast tumor (MCF7) cell line; test: Methylene Blue Growth Inhibition Assay, MCF7; type: cell-based; settings: Homo sapiens, 72 h; MCF7, 3 days; read-out: MeB Cell Line IC50
# Text: (§1) II. Methylene Blue Growth Inhibition Assay
# (§2) Medium was removed by aspiration.
# [2] = tested on: colon (RKO) tumor cell line; test: Methylene Blue Growth Inhibition Assay, RKO; type: cell-based; settings: Homo sapiens, 72 h, 3 days, read-out: MeB Cell Line IC50
# Text: as §1, §2
# [3] = tested on: colon (HCT116) tumor cell line; test: Methylene Blue Growth Inhibition Assay, HCT116; type: cell-based; settings: Homo sapiens, HCT-116, 72 h; HCT116, 3 days; read-out: MeB Cell Line IC50
# Text: as §1, §2
# SAOS2 = test: cells; settings: Homo sapiens, SAOS-2, 72 h, read-out: MeB Cell Line IC50
# COLO205 = test: cells; settings: Homo sapiens, COLO 205, 72 h, read-out: MeB Cell Line IC50
# [4] = tested on: lung (H460) tumor cell line; test: Methylene Blue Growth Inhibition Assay, H460; type: cell-based; settings: Homo sapiens, NCI-H460, 72 h; H460, 3 days; read-out: MeB Cell Line IC50
# Text: as §1, §2
# IMR90 = test: cells; settings: Homo sapiens, IMR-90, 72 h, read-out: MeB Cell Line IC50
# [5] = tested on: Normal Human foreskin fibroblasts (HFF); test: Methylene Blue Growth Inhibition Assay, HFF; type: cell-based; settings: 72 h, 3 days, read-out: MeB Cell Line IC50
# Text: as §1, §2
# MDA435 = test: cells; settings: MDA435, 72 h, read-out: MeB Cell Line IC50
# [6] = tested on: prostate (PC3) tumor cell line; test: Methylene Blue Growth Inhibition Assay, PC3; type: cell-based; settings: Homo sapiens, 72 h; PC3, 3 days; read-out: MeB Cell Line IC50
# Text: as §1, §2
# [7] = molecular target: T1, truncated human PLK1 (kinase domain) (Homo sapiens, UniProt P53350); test: Assay for Inhibition of PLK1 (33P SPA enzyme activity); type: biochemical; settings: 1 μM ATP, 2 nM enzyme; read-out: Ave pIC50 PLK Enzyme Inhibition (converted)
# T1 construct: made in house; host or cells: baculovirus-infected T. ni insect cells
# In short: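 Enzyme is the 6×His-tagged PLK1 kinase domain, purified by Ni-chelate and gel filtration. Compounds added in DMSO, then enzyme; reaction stopped with EDTA/streptavidin SPA bead mix containing 60 μM ATP, read by 33P scintillation proximity.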
# T1 sequence (P53350 21-346): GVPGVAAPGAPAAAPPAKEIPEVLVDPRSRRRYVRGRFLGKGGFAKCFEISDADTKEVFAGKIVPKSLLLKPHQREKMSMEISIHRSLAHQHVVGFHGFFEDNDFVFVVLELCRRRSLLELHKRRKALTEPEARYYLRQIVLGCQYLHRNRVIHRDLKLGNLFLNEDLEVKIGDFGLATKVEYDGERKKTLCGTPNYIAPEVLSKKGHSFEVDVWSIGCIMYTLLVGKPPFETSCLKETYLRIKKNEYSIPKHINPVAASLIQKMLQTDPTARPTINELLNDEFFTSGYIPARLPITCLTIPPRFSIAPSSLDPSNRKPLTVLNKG
SMILES,IC50 [1] [µM],IC50 [2] [µM],IC50 [3] [µM],IC50 [4] [µM],IC50 [6] [µM],IC50 [7] [µM],IC50 (SAOS2) [µM],IC50 (COLO205) [µM],IC50 (IMR90) [µM],IC50 [5] [µM],IC50 (MDA435) [µM]
"COc1cc(Nc2ncc3c(C)nc(-c4ccccc4)n3n2)cc(OC)c1OC [Example 1, 5-Methyl-7-phenyl-N-(3,4,5-trimethoxyphenyl)imidazo[5,1-f][1,2,4]triazin-2-amine]",1 to 10,1 to 10,1 to 10,1 to 10,10 to 30,,1 to 10,1 to 10,10 to 30,10 to 30,1 to 10
"Cc1nc(-c2cccc(C(F)(F)F)c2)n2nc(Nc3cccc(CCO)c3)ncc12 [Example 44, 2-[3-({5-Methyl-7-[3-(trifluoromethyl)phenyl]imidazo[5,1-f][1,2,4]triazin-2-yl}amino)phenyl]ethanol]",10 to 30,1 to 10,1 to 10,1 to 10,10 to 30,< 0.1,,,,10 to 30,
"CC(=O)Nc1cccc(Nc2ncc3c(C)nc(-c4cccc(C(F)(F)F)c4)n3n2)c1 [Example 47, N-[3-({5-Methyl-7-[3-(trifluoromethyl)phenyl]imidazo[5,1-f][1,2,4]triazin-2-yl}amino)phenyl]acetamide]",10 to 30,10 to 30,1 to 10,10 to 30,10 to 30,< 0.1,,,,10 to 30,
"Cc1nc(-c2cccc(C(F)(F)F)c2)n2nc(Nc3cccc(CNC(=O)OC(C)(C)C)c3)ncc12 [Example 48, tert-Butyl 3-({5-methyl-7-[3-(trifluoromethyl)phenyl]imidazo[5,1-f][1,2,4]triazin-2-yl}amino)benzylcarbamate]",10 to 30,1 to 10,10 to 30,10 to 30,10 to 30,0.1 to 10,,,,10 to 30,

# Further lines, with some results ahead:
IC50 [1] [µM],IC50 [2] [µM],IC50 [3] [µM],IC50 [4] [µM],IC50 [6] [µM],IC50 [7] [µM],SMILES,IC50 (SAOS2) [µM],IC50 (COLO205) [µM],IC50 (IMR90) [µM],IC50 [5] [µM],IC50 (MDA435) [µM]
1 to 10,1 to 10,1 to 10,1 to 10,10 to 30,< 0.1,"COc1ccc(NC(C)=O)cc1Nc1ncc2c(C)nc(-c3cccc(C(F)(F)F)c3)n2n1 [Example 43, N-[4-Methoxy-3-({5-methyl-7-[3-(trifluoromethyl)phenyl]imidazo-[5,1-f][1,2,4]triazin-2-yl}amino)phenyl]acetamide]",,,,10 to 30,
1 to 10,1 to 10,1 to 10,10 to 30,10 to 30,< 0.1,"CC(=O)Nc1ccc(Nc2ncc3c(C)nc(-c4cccc(C(F)(F)F)c4)n3n2)cc1 [Example 46, N-[4-({5-Methyl-7-[3-(trifluoromethyl)phenyl]imidazo[5,1-f][1,2,4]triazin-2-yl}amino)phenyl]acetamide]",,,,10 to 30,
10 to 30,10 to 30,10 to 30,10 to 30,10 to 30,< 0.1,"Cc1nc(-c2ccccc2)n2nc(Nc3cccc(CCS(=O)(=O)O)c3)ncc12 [Example 57, 2-{3-[(5-Methyl-7-phenylimidazo[5,1-f][1,2,4]triazin-2-yl)amino]phenyl}ethanesulfonic acid]",,,,10 to 30,
